Experimental data: patent US8415469B2, “Compounds and methods for kinase modulation, and indications therefor” (Plexxikon Inc., priority 2005, dated 2013)

Legend:
Format in all cases: biochemical
Kdr = target: T1, Kdr (Homo sapiens, UniProt P35968); experiment: Z'-Lyte FRET kinase assay (Invitrogen), Kdr; conditions: read-out: IC50, activity toward kinase Kdr
T1 construct: purchased Invitrogen (assay run by Invitrogen)

Kit = target: T2, Kit (Homo sapiens, UniProt P10721); experiment: AlphaScreen kinase assay, Kit; conditions: read-out: IC50, activity toward kinase Kit
T2 construct: P1332.N6 BI PTP KIT M552-K948-X COD; His6 (N); made in house; host or cells: E. coli (PTP1B co-expressed)
T2 sequence (P10721 with tags, fused parts or gaps): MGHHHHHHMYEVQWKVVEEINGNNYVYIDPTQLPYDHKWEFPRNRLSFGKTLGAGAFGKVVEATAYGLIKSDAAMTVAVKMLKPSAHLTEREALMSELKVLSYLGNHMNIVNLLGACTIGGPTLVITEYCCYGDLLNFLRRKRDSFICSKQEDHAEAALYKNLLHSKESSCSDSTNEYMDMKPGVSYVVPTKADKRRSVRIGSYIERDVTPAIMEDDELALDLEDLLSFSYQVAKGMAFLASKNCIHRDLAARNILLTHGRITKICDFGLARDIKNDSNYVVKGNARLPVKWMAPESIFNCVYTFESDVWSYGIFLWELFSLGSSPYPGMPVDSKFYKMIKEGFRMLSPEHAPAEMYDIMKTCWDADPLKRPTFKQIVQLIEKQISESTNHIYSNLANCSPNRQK

MAPKAPK2 = target: T3, MAPKAPK2 (Homo sapiens, UniProt P49137); experiment: Z'-Lyte FRET kinase assay (Invitrogen), MAPKAPK2; conditions: read-out: IC50, activity toward kinase MAPKAPK2
T3 construct: purchased Invitrogen (assay run by Invitrogen)
T3 sequence (P49137 whole entry): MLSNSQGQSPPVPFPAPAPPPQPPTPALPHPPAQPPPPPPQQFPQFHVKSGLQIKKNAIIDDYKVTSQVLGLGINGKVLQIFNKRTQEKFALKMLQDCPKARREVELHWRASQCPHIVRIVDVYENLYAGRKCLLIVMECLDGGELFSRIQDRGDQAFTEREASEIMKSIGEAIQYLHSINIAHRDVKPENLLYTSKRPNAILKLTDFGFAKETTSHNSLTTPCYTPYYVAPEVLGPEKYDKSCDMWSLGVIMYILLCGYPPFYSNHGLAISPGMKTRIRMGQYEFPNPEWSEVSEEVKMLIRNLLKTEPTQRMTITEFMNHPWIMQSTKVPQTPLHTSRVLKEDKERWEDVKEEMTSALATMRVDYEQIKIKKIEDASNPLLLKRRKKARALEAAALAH
Text: The effect of potential modulators of kinase activity can be measured in a variety of different assays known in the art. For example, direct radiometric, indirect FRET or AlphaScreen assays may be used to assess the level of phosphorylation of a substrate in the presence of test compounds in order to determine the inhibitory affect of the compound on the kinase. Invitrogen (Carlsbad, Calif.) uses a FRET based assay for Btk, EGFR, EphB2, Flt3, lrak4, Kdr, MAP2K1, MAPKAPK2, PDGFRB, PKC theta, Stk6 and Yes. For these assays, compounds of the invention were screened by Invitrogen using Z′-Lyte™ kinase assay.
Briefly, the Invitrogen kinase assay involves use of a specific peptide substrate optimized for each kinase, containing a fluorophore at each end that make up the FRET pair. The peptide sensitivity to proteolytic cleavage depends on phosphorylation of the peptide. Non-phosphorylated peptide is cleaved by a protease while peptide phosphorylated by the kinase is not cleaved. Cleavage of the peptide disrupts the FRET between the donor (coumarin) and acceptor (fluorescein) fluorophores, resulting in an increase in the ratio of donor emission to acceptor emission. The emission ratio of coumarin to fluorescein is used to assess the reaction progress. The extent of phosphorylation is determined from the emission ratio, which is low when the kinase is active (phosphorylated peptide is not cleaved, FRET pair connected) or higher for inhibited kinase (non-phosphorylated peptide is cleaved, FRET pair separated). Thus, the assay involves a kinase reaction in the presence of varying concentrations of a given compound, a development reaction with site specific protease, and detection of the fluorescent emission ratio of coumarin and fluorscein. […] Reaction conditions for each kinase are determined to provide optimal reaction times, incubation temperature, kinase and ATP concentrations. Test samples are made up in 1× kinase buffer (50 mM HEPES pH 7.5, 50 mM MgCl2, 5 mM EGTA, 0.05% BRIJ-35) and compound at desired concentration prepared in DMSO such that the final DMSO is 1%. […] Typically, assay plates are prepared to 10 μl final volume per sample, adding 2.5 μl of compound at 4× the desired concentration in 4% DMSO (serial dilution of compound provides concentration curve), 5 μl of the desired kinase mixed with Z′-LYTE™ peptide substrate (2× in 2× kinase buffer, final peptide at 2 μM), and 2.5 μl of 4×ATP solution. All kinase except for MAP2K1 were at 10 μM ATP in the kinase reaction, while MAP2K1 was at 100 μM. Samples are mixed and the kinase reaction is incubated 1 hour at room temperature, after which 5 μl of development solution is added and mixed. After incubation for another 1 hour at room temperature, 5 μl of stop reagent is added to each sample and mixed. The fluorescence signals are measured to determine the emission ratio.

Pyk2 = target: T4, Pyk2 (Homo sapiens, UniProt Q14289); experiment: AlphaScreen kinase assay, Pyk2; conditions: read-out: IC50, activity toward kinase Pyk2
T4 construct: purchased Upstate Biotechnology

Stk6 = target: T5, Stk6 (Homo sapiens, UniProt O14965); experiment: Z'-Lyte FRET kinase assay (Invitrogen), Stk6; conditions: read-out: IC50, activity toward kinase Stk6
T5 construct: purchased Invitrogen (Carlsbad, Calif.), screening service
T5 sequence (O14965 1-403): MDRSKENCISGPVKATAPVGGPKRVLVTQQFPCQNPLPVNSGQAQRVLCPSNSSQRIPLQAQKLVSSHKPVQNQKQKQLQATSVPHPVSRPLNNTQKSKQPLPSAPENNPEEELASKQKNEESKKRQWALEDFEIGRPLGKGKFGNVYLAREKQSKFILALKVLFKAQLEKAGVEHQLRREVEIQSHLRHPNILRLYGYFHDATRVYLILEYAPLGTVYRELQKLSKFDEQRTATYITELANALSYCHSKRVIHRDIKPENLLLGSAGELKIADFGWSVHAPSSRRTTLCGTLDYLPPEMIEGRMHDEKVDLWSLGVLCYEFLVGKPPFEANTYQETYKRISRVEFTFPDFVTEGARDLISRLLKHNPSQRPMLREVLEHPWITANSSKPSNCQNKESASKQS

Gsk3β = Gsk3β (Homo sapiens, UniProt P49841); experiment: AlphaScreen kinase assay, Gsk3β; conditions: read-out: IC50, activity toward kinase Gsk3β
Chain of Gsk3β (P49841 whole entry): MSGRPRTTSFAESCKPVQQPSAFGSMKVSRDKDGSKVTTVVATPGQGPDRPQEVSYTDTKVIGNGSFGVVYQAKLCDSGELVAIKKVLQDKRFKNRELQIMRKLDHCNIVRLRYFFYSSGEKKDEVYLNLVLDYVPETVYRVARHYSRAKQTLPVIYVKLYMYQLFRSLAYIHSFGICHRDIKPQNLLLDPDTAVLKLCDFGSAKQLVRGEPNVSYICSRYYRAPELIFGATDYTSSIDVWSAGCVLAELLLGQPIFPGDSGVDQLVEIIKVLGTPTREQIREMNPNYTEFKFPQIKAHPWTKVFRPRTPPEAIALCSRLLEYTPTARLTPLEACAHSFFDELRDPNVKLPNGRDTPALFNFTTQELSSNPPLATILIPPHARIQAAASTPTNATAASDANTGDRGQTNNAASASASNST
Summary of the method: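 AlphaScreen, biotin-peptide substrate; streptavidin donor/anti-phospho acceptor beads; decreased emission = inhibition. Cpds 20 mM DMSO stock, 1:3 x 8 conc.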

IKK beta = target: T6, IKK beta (Homo sapiens, UniProt O14920); experiment: AlphaScreen kinase assay, IKK beta; conditions: read-out: IC50, activity toward kinase IKK beta
T6 sequence (O14920 1-756): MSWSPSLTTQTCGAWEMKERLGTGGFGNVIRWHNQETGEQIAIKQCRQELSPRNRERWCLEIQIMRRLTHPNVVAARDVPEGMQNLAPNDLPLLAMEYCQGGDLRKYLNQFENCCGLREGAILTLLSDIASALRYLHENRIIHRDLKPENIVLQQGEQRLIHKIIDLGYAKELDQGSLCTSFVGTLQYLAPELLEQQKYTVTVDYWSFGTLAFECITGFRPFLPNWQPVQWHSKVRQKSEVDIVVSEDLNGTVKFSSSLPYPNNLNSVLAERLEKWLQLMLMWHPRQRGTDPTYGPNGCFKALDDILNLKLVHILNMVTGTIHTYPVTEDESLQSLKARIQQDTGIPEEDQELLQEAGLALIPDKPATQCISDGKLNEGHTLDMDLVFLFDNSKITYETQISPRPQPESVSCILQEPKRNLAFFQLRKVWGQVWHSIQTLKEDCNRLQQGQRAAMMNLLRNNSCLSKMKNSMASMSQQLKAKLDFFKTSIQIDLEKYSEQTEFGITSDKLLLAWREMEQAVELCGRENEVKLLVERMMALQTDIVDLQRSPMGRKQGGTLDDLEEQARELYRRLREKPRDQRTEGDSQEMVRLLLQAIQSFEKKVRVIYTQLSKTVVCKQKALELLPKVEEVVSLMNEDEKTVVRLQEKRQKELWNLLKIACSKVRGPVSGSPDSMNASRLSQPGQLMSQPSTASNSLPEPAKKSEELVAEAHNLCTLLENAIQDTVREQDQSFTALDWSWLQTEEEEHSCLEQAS

Fak = target: T7, Fak (Homo sapiens, UniProt Q05397); experiment: AlphaScreen kinase assay, Fak; conditions: read-out: IC50, activity toward kinase Fak
T7 construct: P1358.pFastBacHtb FAK S411-Q686-X; His6 with pFastBacHTb leader (TEV site) (N); made in house; host or cells: Sf9 (baculovirus)
T7 sequence (Q05397 411-686): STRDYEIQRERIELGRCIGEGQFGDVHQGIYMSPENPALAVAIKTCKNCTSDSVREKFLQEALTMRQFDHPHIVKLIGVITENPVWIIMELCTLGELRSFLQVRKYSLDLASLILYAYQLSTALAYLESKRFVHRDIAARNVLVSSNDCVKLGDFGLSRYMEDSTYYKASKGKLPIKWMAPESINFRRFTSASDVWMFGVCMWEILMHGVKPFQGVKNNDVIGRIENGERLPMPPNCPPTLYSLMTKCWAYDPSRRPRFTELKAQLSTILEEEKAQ

FGFR1 = target: T8, FGFR1 (Homo sapiens, UniProt P11362, C488A/C584S); experiment: AlphaScreen kinase assay, FGFR1; conditions: read-out: IC50, activity toward kinase FGFR
T8 construct: P1351.pET N6 BI-PTP FGFR A458-E765-X C488A, C584S; made in house; host or cells: E. coli (PTP1B co-expressed)

Src = target: T9, Src (Homo sapiens, UniProt P12931); experiment: AlphaScreen kinase assay, Src; conditions: read-out: IC50, activity toward kinase Src
T9 construct: P1144. pET-N6 BI-PTP SRC V86-L536-X; made in house

Csk = Csk (Homo sapiens, UniProt P41240); experiment: AlphaScreen kinase assay, Csk; conditions: read-out: IC50, activity toward kinase Csk
Text: (§1) AlphaScreen assay was used to screen additional kinases. The assay is similarly dependent on the phosphorylation of a peptide substrate. In this assay, an antibody that recognizes phosphorylated substrate is bound to an acceptor bead. The peptide substrate is attached to biotin, which binds to a donor head that contains streptavidin. Thus phosphorylated substrate is bound by antibody and streptavidin, bringing the donor and acceptor heads into close proximity when kinase is not inhibited. The donor produces singlet oxygen which results in emission from the acceptor when they are in close proximity. Conversely, when kinase is inhibited, the donor and acceptor beads are not associated and the emission from the acceptor is reduced.
(§2) AlphaScreen assays were done using compounds dissolved in DMSO to a concentration of 20 mM. The compounds were diluted accordingly to the desired final concentrations in each sample well, using 1:3 serial dilution for a total of 8 concentration points.

Frk = Frk (Homo sapiens, UniProt P42685); experiment: AlphaScreen kinase assay, Frk; conditions: read-out: IC50, activity toward kinase Frk
Text: as §1, §2

Hck = Hck (Homo sapiens, UniProt P08631); experiment: AlphaScreen kinase assay, Hck; conditions: read-out: IC50, activity toward kinase Hck
Chain of Hck (P08631 whole entry): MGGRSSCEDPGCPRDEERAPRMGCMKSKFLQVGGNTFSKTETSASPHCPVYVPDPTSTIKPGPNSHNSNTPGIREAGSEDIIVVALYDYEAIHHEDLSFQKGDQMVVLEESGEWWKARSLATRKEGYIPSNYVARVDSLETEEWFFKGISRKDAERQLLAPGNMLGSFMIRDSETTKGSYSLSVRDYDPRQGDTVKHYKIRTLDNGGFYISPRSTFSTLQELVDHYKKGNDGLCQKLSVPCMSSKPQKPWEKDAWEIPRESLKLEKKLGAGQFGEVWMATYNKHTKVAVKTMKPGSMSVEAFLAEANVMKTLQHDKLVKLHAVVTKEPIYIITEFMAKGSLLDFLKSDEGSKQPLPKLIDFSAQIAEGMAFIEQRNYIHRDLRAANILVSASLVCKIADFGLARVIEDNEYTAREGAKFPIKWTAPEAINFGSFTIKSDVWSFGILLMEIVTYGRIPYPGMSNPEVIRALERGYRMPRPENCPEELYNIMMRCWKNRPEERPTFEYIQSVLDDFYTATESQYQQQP
Text: as §1, §2

MAP4K4 = MAP4K4 (Homo sapiens, UniProt O95819); experiment: AlphaScreen kinase assay, MAP4K4; conditions: read-out: IC50, activity toward kinase MAP4K4
Protocol: AlphaScreen assays were done using compounds dissolved in DMSO to a concentration of 20 mM. The compounds were diluted accordingly to the desired final concentrations in each sample well, using 1:3 serial dilution for a total of 8 concentration points. Plates were prepared such that each kinase reaction is 20 μl in 1× kinase buffer, 5% DMSO and 10 μM ATP. After incubation of the kinase reaction for 1 hour at room temperature, 5 μl of donor beads in stop buffer (50 mM EDTA in 1× kinase buffer) was added, the sample was mixed and incubated for 20 minutes at room temperature before adding 5 μl of acceptor beads in stop buffer. The samples were incubated for 60 minutes at room temperature and the signal per well was read on AlphaQuest reader.

PDGFRA = PDGFRA (Homo sapiens, UniProt P16234); experiment: AlphaScreen kinase assay, PDGFRA; conditions: read-out: IC50, activity toward kinase PDGFRA
Chain of PDGFRA (P16234 24-1089): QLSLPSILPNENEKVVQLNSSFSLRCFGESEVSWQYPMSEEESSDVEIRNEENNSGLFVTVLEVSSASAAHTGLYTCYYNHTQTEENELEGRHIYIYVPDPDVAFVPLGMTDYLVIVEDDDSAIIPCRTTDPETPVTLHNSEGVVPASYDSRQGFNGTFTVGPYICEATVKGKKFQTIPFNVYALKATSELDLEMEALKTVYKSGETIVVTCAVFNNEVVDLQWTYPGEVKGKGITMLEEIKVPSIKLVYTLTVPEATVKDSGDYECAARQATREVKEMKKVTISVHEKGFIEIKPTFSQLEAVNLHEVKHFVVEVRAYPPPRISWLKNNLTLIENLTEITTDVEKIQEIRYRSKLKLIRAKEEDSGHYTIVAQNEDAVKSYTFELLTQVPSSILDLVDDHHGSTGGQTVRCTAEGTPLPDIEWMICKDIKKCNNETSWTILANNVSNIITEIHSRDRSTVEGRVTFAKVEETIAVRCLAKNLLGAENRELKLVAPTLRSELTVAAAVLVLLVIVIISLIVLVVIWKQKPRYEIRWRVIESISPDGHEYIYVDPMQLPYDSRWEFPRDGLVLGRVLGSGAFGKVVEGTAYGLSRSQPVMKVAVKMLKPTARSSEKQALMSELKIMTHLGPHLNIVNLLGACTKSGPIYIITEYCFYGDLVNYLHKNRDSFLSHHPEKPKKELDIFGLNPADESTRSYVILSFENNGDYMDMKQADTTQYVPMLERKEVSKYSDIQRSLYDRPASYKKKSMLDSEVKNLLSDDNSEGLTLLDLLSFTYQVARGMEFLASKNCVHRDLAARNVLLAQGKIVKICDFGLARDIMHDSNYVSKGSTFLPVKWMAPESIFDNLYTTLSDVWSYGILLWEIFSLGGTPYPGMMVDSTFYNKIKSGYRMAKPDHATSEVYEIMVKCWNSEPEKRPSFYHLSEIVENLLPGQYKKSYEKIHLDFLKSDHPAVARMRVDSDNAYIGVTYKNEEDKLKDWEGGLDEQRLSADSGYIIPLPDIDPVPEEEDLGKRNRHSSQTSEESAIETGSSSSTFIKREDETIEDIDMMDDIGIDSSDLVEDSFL
Text: as §1, §2

Brk = Brk (Homo sapiens, UniProt Q13882); experiment: AlphaScreen kinase assay, Brk; conditions: read-out: IC50, activity toward kinase Brk
Chain of Brk (Q13882 whole entry): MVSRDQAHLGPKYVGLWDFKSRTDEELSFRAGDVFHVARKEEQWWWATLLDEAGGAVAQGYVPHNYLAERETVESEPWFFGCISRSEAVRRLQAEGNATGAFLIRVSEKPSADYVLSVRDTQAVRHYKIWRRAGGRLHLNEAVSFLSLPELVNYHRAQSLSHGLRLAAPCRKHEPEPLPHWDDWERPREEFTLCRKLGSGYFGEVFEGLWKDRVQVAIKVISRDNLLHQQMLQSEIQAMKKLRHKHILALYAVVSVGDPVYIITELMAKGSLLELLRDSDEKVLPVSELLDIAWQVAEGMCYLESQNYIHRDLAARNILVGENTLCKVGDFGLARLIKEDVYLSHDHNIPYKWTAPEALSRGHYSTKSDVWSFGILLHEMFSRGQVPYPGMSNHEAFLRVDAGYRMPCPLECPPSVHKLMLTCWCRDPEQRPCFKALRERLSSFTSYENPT
Text: as §1, §2

Measured: IC50

T1 sequence (P35968 20-1356): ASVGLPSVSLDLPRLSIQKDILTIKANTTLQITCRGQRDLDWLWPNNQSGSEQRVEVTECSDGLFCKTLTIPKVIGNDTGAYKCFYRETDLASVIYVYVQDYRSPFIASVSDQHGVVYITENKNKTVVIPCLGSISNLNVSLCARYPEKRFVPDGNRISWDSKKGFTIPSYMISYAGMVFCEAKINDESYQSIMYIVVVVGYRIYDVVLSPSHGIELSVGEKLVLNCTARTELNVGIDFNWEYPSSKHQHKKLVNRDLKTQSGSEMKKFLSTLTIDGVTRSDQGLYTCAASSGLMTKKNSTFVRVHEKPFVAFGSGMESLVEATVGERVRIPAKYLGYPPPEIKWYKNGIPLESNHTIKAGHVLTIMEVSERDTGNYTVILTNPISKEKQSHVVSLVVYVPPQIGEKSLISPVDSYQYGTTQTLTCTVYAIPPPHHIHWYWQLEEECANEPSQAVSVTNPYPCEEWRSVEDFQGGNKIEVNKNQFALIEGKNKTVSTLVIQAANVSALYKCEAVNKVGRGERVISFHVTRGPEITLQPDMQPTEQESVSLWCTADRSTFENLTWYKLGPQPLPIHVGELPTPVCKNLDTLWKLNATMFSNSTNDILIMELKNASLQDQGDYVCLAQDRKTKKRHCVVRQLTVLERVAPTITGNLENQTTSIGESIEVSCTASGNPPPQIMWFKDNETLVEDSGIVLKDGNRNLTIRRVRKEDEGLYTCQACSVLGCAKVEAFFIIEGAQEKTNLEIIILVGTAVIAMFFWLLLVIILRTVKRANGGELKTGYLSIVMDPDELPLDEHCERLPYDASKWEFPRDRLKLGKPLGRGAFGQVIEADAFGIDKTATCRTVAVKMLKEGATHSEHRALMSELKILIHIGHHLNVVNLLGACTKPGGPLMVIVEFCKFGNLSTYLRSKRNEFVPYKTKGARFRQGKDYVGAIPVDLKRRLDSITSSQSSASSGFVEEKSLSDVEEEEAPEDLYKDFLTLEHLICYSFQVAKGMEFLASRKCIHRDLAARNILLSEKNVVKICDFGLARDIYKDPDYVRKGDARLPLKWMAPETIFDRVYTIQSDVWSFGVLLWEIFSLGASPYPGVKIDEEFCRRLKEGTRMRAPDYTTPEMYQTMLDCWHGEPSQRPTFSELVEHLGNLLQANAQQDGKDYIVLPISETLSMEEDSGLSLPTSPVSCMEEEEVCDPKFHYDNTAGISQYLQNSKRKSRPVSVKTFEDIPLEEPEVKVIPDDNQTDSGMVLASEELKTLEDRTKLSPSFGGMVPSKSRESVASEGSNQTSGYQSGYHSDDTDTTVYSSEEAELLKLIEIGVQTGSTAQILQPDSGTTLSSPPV

O=C(O)c1ccc(Sc2c[nH]c3ncccc23)nc1 [Compound P-0086]
≤ 10 µM: Kdr | Kit | MAPKAPK2 | Pyk2 | Stk6 | Gsk3β | IKK beta

Nc1ccc(Sc2c[nH]c3nccc(-c4cccc(CO)c4)c23)cc1 [Compound P-0077]
≤ 10 µM: Kdr | MAPKAPK2 | Stk6

FC(F)(F)c1cccc(-c2ccnc3[nH]cc(Sc4ccncc4)c23)c1 [Compound P-0226]
≤ 10 µM: Kdr | MAPKAPK2 | Gsk3β

Cc1cccc(-c2ccnc3[nH]cc(Sc4cccs4)c23)c1 [Compound P-0104]
≤ 10 µM: MAPKAPK2 | Stk6 | Gsk3β

CCCS(=O)(=O)Nc1ccc(F)c(C(=O)c2c[nH]c3ncc(Cl)cc23)c1F [Compound P-0933, Propane-1-sulfonic acid [3-(5-chloro-1H-pyrrolo[2,3-b]pyridine-3-carbonyl)-2,4-difluoro-phenyl]-amide]
not listed: Kdr | MAPKAPK2 | Pyk2 | Gsk3β | IKK beta
≤ 10 µM: all other assays above
